# “Also recorded” adds a separate entry of the source. Where a name gives a salt, the structure may show the parent alone.
# Tests used:
# [1] = Inhibition of decomposition of compound 1-containing liquid composition with antioxidant added (60° C., 48 hours); format: physicochemical; details: compound 1 250 μM, Tween 80 1.0 v/v %, antioxidant 250 μM, 60° C. for 48 hours (FIG. 6)
# Description: In this test, an additive (antioxidant) that traps reactive oxygen species (ROS) was added to investigate the usefulness in the aqueous solution of the compound 1 for inhibition of decomposition under thermal conditions. A compound 1, Tween 80 and an antioxidant was metered, and Milli-Q water was added so that the concentration of the compound 1 and Tween 80 became 250 μM and 1.0 v/v %, respectively. Subsequently, four antioxidants were added so that each of the concentration thereof became 250 μM to obtain a compound 1-containing liquid composition with an antioxidant added. The content of D1 after the composition was heated at 60° C. for 48 hours was evaluated.
# [2] = Solution stability of compound 1-containing liquid composition with VC added (heating to 60° C.); format: physicochemical; details: VC 250, 500 or 2,500 μM, compound 1 250 μM, Tween 80 1.0 v/v %
# Description: (§1) Measurement of the residual rate of the compound 1 and the content of the decomposition products in the following Examples 3 to 9 was performed under the following conditions: • Analyzer: HPLC-PDA system: CBM-20Avp system controller, SIC-20ADvp autosampler, LC-20ADvp feed pump, DGU-20A degasser, CTO-20Avp column oven, SPD-M10Avp photodiode array detector, manufactured by Shimadzu Corporation • Column: Kinetex® Biphenyl […] (50×4.6 mm), manufactured by Shimadzu Corporation
# Effects of the amount of VC added on the solution stability of the compound 1 were investigated. Preparation was performed in the same manner as for the compound 1-containing liquid composition in Example 8 except that the concentration of VC was 250, 500 or 2,500 μM. The decomposition of the compound 1 and the production of D1 at the time of addition were evaluated (mean±standard error, n=3). After heating to 60° C., and the residual rate of the compound 1 and the content of D1 were evaluated over time, and the results are shown in FIG. 7. The residual rate (% by mass) of the compound 1 in the solution and the content (% by area) of D1 were calculated by the same calculation method as in Examples 3 to 8.
# [3] = test system: phospholipase A2; details: known from Patent Document 1; cited from earlier work
# [4] = clinical use as additive; cited from earlier work
# [5] = Forced decomposition test of compound 1 (heat, acid, base, oxidation, light; HPLC-PDA); format: physicochemical
# Description: A forced decomposition test of the compound 1 was performed under stress conditions of heat, acid, base, oxidation and light. A compound 1-containing solution was stored under the conditions shown in Table 4 below, and then the concentrations of the compound 1 and the decomposition products in the solution were measured using a high performance liquid chromatography-photodiode array detector (HPLC-PDA system). An incubator was used for heating, and a light resistance tester was used for irradiation with pseudo-sunlight in a photodecomposition test. The content of the compound 1 in the compound 1-containing solution produced was measured by the HPLC-PDA system, and the value thereof was regarded as the initial content.
# The content of D1 and D3 in the solution was represented by the proportion (% by area) of the peak area of each compound to the total peak area of HPLC analysis of the composition obtained after the decomposition test. Furthermore, the residual rate (% by mass) of the compound 1 was calculated by dividing the content after storage by the initial content using the absolute calibration method.
# as §1
# A compound 1 was metered, and Milli-Q water was added so that the compound 1 could be solubilized, thus obtaining an aqueous solution of the compound 1 (250 μM) so that the concentration of the compound 1 became 250 μM.
# The aqueous solution of the compound 1 thus obtained (250 μM) was heated at 60° C., followed by measurement using the HPLC-PDA system.
# The aqueous solution of the compound 1 obtained in Example 3 (250 μM) was heated under acid (0.1N HCl) conditions, followed by measurement of the decomposition products using the HPLC-PDA system. […] Addition of an acid decreased the production of D1 and promoted the production of D3.
# The aqueous solution of the compound 1 obtained in Example 3 (250 μM) was heated under base (0.1N NaOH) conditions, followed by measurement of the decomposition products using the HPLC-PDA system. […] Addition of a base promoted the production of D1. Other peaks (0.11% by area) were observed.
# The aqueous solution of the compound 1 obtained in Example 3 (250 μM) was stored under conditions of ordinary temperature and hydrogen peroxide (3 v/v %), followed by measurement of the decomposition products using the HPLC-PDA system.
# The aqueous solution of the compound 1 obtained in Example 3 (250 μM) was irradiated with pseudo-sunlight (250 W/m^2, 2 hours), followed by measurement of the decomposition products using the HPLC-PDA system. […] Therefore, it was confirmed that the aqueous solution of the compound 1 was photostable.
# [6] = Pharmacokinetic evaluation of hydrogelated liquid composition, subcutaneous administration to rats; format: in vivo, SD male rats; details: 5 mg/kg
# Description: A compound 1 (3.5 mg), Kolliphor (registered trademark) P188 (200 mg), Kolliphor (registered trademark) P407 (150 mg) and purified water (1.0 mL) were mixed using a vortex mixer to obtain a liquid composition. Then, the above liquid composition was stored at 4° C. overnight to obtain a hydrogel.
# To evaluate the sustained-release ability of the hydrogelated liquid composition prepared in the above Example 11(a), the drug concentration in blood was measured over time after subcutaneous administration of the hydrogel or a compound 1 bulk powder to rats. Specifically, the hydrogel or the compound 1 bulk powder, at a dose of 5 mg/kg as an amount of the compound 1, was singly subcutaneously administered to SD male rats. After subcutaneous administration, blood was collected over time from the tail vein, and the blood was transferred into a micro test tube treated with heparin, and immediately cooled in ice. After cooling in ice, the blood was immediately centrifuged at 4° C. and 10,000 g for 10 minutes.
# In Table 10, pharmacokinetic parameter was expressed as mean±standard error (n=3 to 6).
# [7] = Heat: 60° C., 48 h, —: Undetected
# [8] = Oxidation: 3.0% H2O2, room temperature, 48 h
smiles,measurement,setting,value
"O=C1O[C@H]([C@@H](O)CO)C(O)=C1O [VC, L-ascorbic acid]",Inhibition of decomposition of compound 1 / production of D1 by added antioxidant,[1],remarkably inhibited the production of D1
same,Residual rate of the compound 1 over time with VC added,[2]; 60° C. (FIG. 7A),increased depending on the concentration of VC added
same,Content of D1 over time with VC added,[2]; 60° C. (FIG. 7B),decreased depending on the concentration of VC added
CCS(=O)(=O)Nc1ncc(C(F)(F)F)cc1NC(=O)C1CCCCC1 [N-(2-ethylsulfonylamino-5-trifluoromethyl-3-pyridyl)cyclohexanecarboxamide],Inhibitory effect on phospholipase A2,[3],has an inhibitory effect on phospholipase A2
"N[C@@H](CS)C(=O)O [cysteine, L-Cysteine]",Inhibition of decomposition of compound 1 / production of D1 by added antioxidant,[1],remarkably inhibited the production of D1
same,Maximum dose during intravenous injection,[4],8 mg
"CCS(=O)(=O)Nc1ncc(C(F)(F)F)cc1NC(=O)C1CCCCC1 [Compound 1, N-(2-ethylsulfonylamino-5-trifluoromethyl-3-pyridyl)cyclohexanecarboxamide-monosodium salt-monohydrate]",Content of D3 after the forced decomposition test,"[5]; Acid: 0.1N HCl, 60° C., 48 h",16.18 % by area
same,"Other peaks (other than D1 and D3), maximum","[5]; Acid: 0.1N HCl, 60° C., 48 h",≤ 1.36 % by area
same,Residual rate of the compound 1 after the forced decomposition test,"[5]; Acid: 0.1N HCl, 60° C., 48 h",77.1 % by mass
same,Content of D1 after the forced decomposition test,"[5]; Acid: 0.1N HCl, 60° C., 48 h, —: Undetected",below the detection limit
same,Content of D1 after the forced decomposition test,"[5]; Base: 0.1N NaOH, 60° C., 48 h",17.62 % by area
same,Content of D3 after the forced decomposition test,"[5]; Base: 0.1N NaOH, 60° C., 48 h",0.50 % by area
same,Other peaks (other than D1 and D3),"[5]; Base: 0.1N NaOH, 60° C., 48 h",0.11 % by area
same,Residual rate of the compound 1 after the forced decomposition test,"[5]; Base: 0.1N NaOH, 60° C., 48 h",77.3 % by mass
same,Residual rate of the compound 1 after the forced decomposition test,"[5]; Heat: 250 μM aqueous solution, 60° C., 48 h",88.7 % by mass
same,Other peaks (other than D1 and D3),"[5]; Heat: 60° C., 48 h",No other peaks were detected
same,Content of D1 after the forced decomposition test,[5]; [7],8.08 % by area
same,Content of D3 after the forced decomposition test,[5]; [7],below the detection limit
same,Residual rate of the compound 1 after the forced decomposition test,"[5]; Light: pseudo-sunlight 250 W/m^2, room temperature, 2 h",97.4 % by mass
same,Content of D1 after the forced decomposition test,[5]; [8],0.30 % by area
same,Residual rate of the compound 1 after the forced decomposition test,[5]; [8],75.9 % by mass
same,Content of D3 after the forced decomposition test,"[5]; Oxidation: 3.0% H2O2, room temperature, 48 h, —: Undetected",below the detection limit
same,"Peaks other than D1 and D3, maximum","[5]; Oxidation: hydrogen peroxide 3 v/v %, ordinary temperature",≤ 1.79 % by area
same,Photostability of the aqueous solution (decomposition products after irradiation),"[5]; pseudo-sunlight 250 W/m^2, 2 hours",No decomposition product was detected; also recorded: photostable
same,Concentration in plasma at 12 hours after administration,[6],below the detection limit

# Source: patent US12396987B2, “Pharmaceutical composition with excellent storage stability” (ISHIHARA SANGYO KAISHA, LTD., priority 2018, dated 2025)
